The record followed here is publication PMC5352758, “Methods for 20S Immunoproteasome and 20S Constitutive Proteasome Determination Based on SPRI Biosensors” (Cellular and Molecular Bioengineering, 2017).

Where a SMILES comes first, the peptide text is derived from it. [ ]: non-standard residue; d: D form. hPhe = N[C@@H](CCc1ccccc1)C(=O)O; Nle = CCCC[C@H](N)C(=O)O

One assay addresses T1, chymotrypsin (Bos taurus, UniProt P00766).
T1 construct: purchased Sigma (Schnelldorf, Germany)
Description: Inhibition of amidolytic activity of chymotrypsin (chromogenic substrate). It counts as biochemical. The following applies: substrate Suc-Phe-pNA 8 mM, tris buffer pH 9.0, chymotrypsin 0.4 units mL−1, 3 min pre-incubation at 37 °C, 20 min incubation, absorbance 405 nm, average of triplicate. The procedure: (§1) Determination of amidolytic activity was performed as described by Okada.[22] The synthetic amidolytic (chromogenic) substrates (Bzl-L-Arg-pNA.HCl for trypsin and Suc-Phe-pNA for chymotrypsin) are selected to give appropriate specificity for inhibition of the serine proteases. A chromophore (para-nitroaniline = pNA, yellow color) is cleaved from the C-terminus amide bond by the protease, and the absorbance can be detected.
(§2) A detailed description of the method is given below. The buffer and the enzyme solution contained: • […] buffer—0.5 mL (pH 7.5), enzyme: trypsin (0.4 units mL^−1), synthetic substrate: Bzl-L-Arg-pNA.HCl (0.2 mL, 8 mM); • tris buffer—0.6 mL (pH 9.0), enzyme: chymotrypsin (0.4 units mL^−1), synthetic substrate: Suc-Phe-pNA (0.2 mL, 8 mM).
(§3) The buffer and 0.1 mL of enzyme solution were added to 0.2 mL of the examined compound dissolved in 0.15 M NaCl (1–11) (as control 0.15 M NaCl). The mixture was incubated for 3 min at 37 °C, then the synthetic substrate was added. After 20 min of incubation, the reaction was stopped by adding 0.1 mL of 50% acetic acid, and the absorbance of the released p-nitroaniline was measured at 405 nm (Spekol 1300, Analytic Jena). Every value represents the average of triplicate determination. The IC50 value was taken as the concentration of the inhibitor which decreased the absorbance at 405 nm by 50% compared with the absorbance measured under the same conditions without the inhibitor.

In the next assay the target is T2, 20Si (immunoproteasome) (Homo sapiens, UniProt P28062+P28065+P40306).
T2 construct: purchased www.vivabioscience.com (Basepoint Business Centre, United Kingdom)
Description: SPRI measurement of ability of immobilized potential receptor to bind 20Si. It counts as binding. The following applies: for Selectivity of binding 20Si vs 20Sc, in words (text summary of Table 4): 20Si or 20Sc 2.8 μg mL−1; for Ability to bind 20Si: receptor at 1, 10, 100 μg mL−1, 20Si 2.8 μg mL−1, SPRI signal increase of less than 20% = lack of ability to bind. The protocol: (§4) Chips were immersed in an ethanolic solution 1-octadecanothiol (ODM) ([…]) for 24 h at room temperature. Then the biosensors have been repeatedly washed in ethanol and water, and dried under a stream of argon. Chips prepared in this way can be stored and used for subsequent measurements. […] After that time, the process of immobilization of the inhibitor by hydrophobic interaction was completed. A biosensor prepared in this way should be used directly for analysis. A diagram of the chip appears in Fig. 1a.
(§5) The chip was immersed in a vessel with an ethanolic solution of cysteamine for 2 h at room temperature. After 2 h, the chip was rinsed with ethanol and water and dried under a stream of argon. A chip prepared in this manner can be stored and used for subsequent measurements. Each of the synthesised inhibitor solutions was activated with NHS (250 mM) and EDC (250 mM) in the ratio 1: 1 and carbonate buffer (pH 8.5) as a suitable reaction medium. Next, 3 μL of this solution was placed on each of nine active sites on the amine-modified surface. The closed vessel with the biosensor and under appropriate conditions of humidity was incubated at 37 °C for 1 h. Next, the biosensor was rinsed with water and dried under a stream of argon. A biosensor prepared in this way should be used directly for testing and analysis.
(§6) SPRI measurements for the protein biosensor array were performed as described elsewhere.[8],[11] Briefly, the measurements were performed at a fixed angle of incident light and the reflectivity was simultaneously measured cross an entire chip surface. The contrast values obtained for all pixels across a particular sample single spot were integrated. The signal was measured twice on the basis of registered images, after immobilization of the inhibitor and after immunoproteasome interaction. The SPRI signal, which is proportional to the coupled protein, was obtained by subtraction between the signals before and after interaction with protein for each spot separately.
(§7) A background correction was applied i.e. some of the sites on the biosensor covered with PBS buffer were used as a control. Non-specific binding was monitored by measuring the SPRI signal at a site on the chip without the receptor (ligand). Minimization of non-specific binding was achieved by preparing samples in PBS buffer (NaCl an KCl concentration ~200 mM) at pH 7.4 near the isoelectric point of the protein.
(§8) A crucial factor for the application of newly synthesised potential receptors is their selectivity. Selectivity for 20Si or 20Sc was checked using SPRI measurements. […] Measurements were performed as described above at three different concentrations of potential receptors (1, 10, 100 μg mL^−1) at a fixed concentration of 20Si (2.8 μg mL^−1) or 20Sc (2.8 μg mL^−1). An increase in the SPRI signal of less than 20% was considered to imply lack of ability to bind 20Si or 20Sc.

In assay [1] the target is 20Sc (constitutive proteasome; commercially available proteasome) (Homo sapiens, UniProt P28072+P28074+Q99436). Description: SPRI measurement of ability of immobilized potential receptor to bind 20Sc. It counts as binding, mammalian. Particulars: receptor at 1, 10, 100 μg mL−1, 20Sc 2.8 μg mL−1, SPRI signal increase of less than 20% = lack of ability to bind. The procedure:
as §4, §5, §6, §7, §8

A further assay addresses T3, 20Si (Homo sapiens, UniProt P28062+P28065+P40306).
T3 construct: purchased www.vivabioscience.com (Basepoint Business Centre, United Kingdom)
Description: Specificity of SPRI biosensor: 20Si determination in the presence of an interferent. It counts as binding. Particulars: added 20Si 2.80 μg mL−1; for Found 20Si: tripeptide as receptor via cysteamine linker, 20Sc 2.8 μg mL−1, ratio 20Si vs. 20Sc 1:1, 95% confidence limits, 12 measurements; for Recovery: tripeptide as receptor, 20Sc 2.8 μg mL−1, ratio 1:1. The protocol:
as §6, §7
The specificity of the developed biosensor, especially against 20Sc, is crucial factor for the device’s application. Specificity was investigated at different ratios of 20Si and 20Sc and various 20Si concentrations. Additionally, tolerance of human albumin was checked.
This investigation is crucial for the determination of 20Si in the presence of 20Sc. Series of model solutions containing both 20Si (2.8 μg mL^−1) and 20Sc (2.8 μg mL^−1) were determined using four developed biosensors specific for 20Si. The confidence limits of the results are a measure of measurement precision.

A further assay concerns trypsin. Description: Inhibition of amidolytic activity of trypsin (chromogenic substrate). The class given is biochemical. The following applies: substrate Bzl-L-Arg-pNA.HCl 8 mM, borane buffer pH 7.5, trypsin 0.4 units mL−1, 3 min pre-incubation at 37 °C, 20 min incubation, absorbance 405 nm, average of triplicate. The protocol: as §1, §2, §3

In general, IC50 refers to the concentration that gives 50% inhibition. Low values mean greater potency in that assay, high ones weaker potency in that assay. Regarding `N[C@@H](Cc1ccccc1)C(=O)N[C@@H](Cc1ccccc1)C(=O)O` [compound 9, H-Phe-Phe-OH] (H-Phe-Phe-OH), half-maximal inhibition on chymotrypsin (IC50) was put at 141 ± 11 µM. In addition, at 20Si (immunoproteasome), the “Selectivity of binding 20Si vs 20Sc, in words (text summary of Table 4)” value (“Selectivity of binding 20Si vs 20Sc” below) is “selectivity to 20Sc” and the “Ability to bind 20Si” value is “– (−, lack of bonding)”. Besides, in assay [1], the “Ability to bind 20Sc” value is “+ (+, bound)”.

Compound `CC(C)C[C@H](N)C(=O)N[C@@H](Cc1ccccc1)C(=O)N[C@@H](Cc1ccccc1)C(=O)O` [compound 4, H-Leu-Phe–Phe-OH] (H-Leu-Phe-Phe-OH) came in with an IC50 against chymotrypsin of 184 ± 14 µM. On 20Si (immunoproteasome), the “Selectivity of binding 20Si vs 20Sc” value was “does not capture any form of 20S” and the “Ability to bind 20Si” value was “– (−, lack of bonding)”. In addition, in assay [1], the “Ability to bind 20Sc” value was “– (−, lack of bonding)”.

Consider `N[C@@H](Cc1ccccc1)C(=O)N[C@@H](Cc1ccccc1)C(=O)N[C@@H](Cc1ccccc1)C(=O)O` [compound 2, H-Phe-Phe–Phe-OH] (H-Phe-Phe-Phe-OH), for which the IC50 against chymotrypsin was 185 ± 14 µM. Further, at 20Si (immunoproteasome), the “Selectivity of binding 20Si vs 20Sc” value is “able to bind both 20Si and 20Sc”; the “Ability to bind 20Si” value is recorded as “+ (+, bound)”. In addition, in assay [1], the “Ability to bind 20Sc” value is given as “+ (+, bound)”.

`C[C@H](NC(=O)[C@@H](N)Cc1ccccc1)C(=O)N[C@@H](Cc1ccccc1)C(=O)O` [compound 3, H-Phe-Ala-Phe-OH] (H-Phe-Ala-Phe-OH) showed an IC50 against chymotrypsin of 187 ± 14 µM. Further, on 20Si (immunoproteasome), the “Selectivity of binding 20Si vs 20Sc” value was “able to bind both 20Si and 20Sc”; the “Ability to bind 20Si” value is recorded as “+ (+, bound)”. Also, in assay [1], the “Ability to bind 20Sc” value is “+ (+, bound)”.

In the case of `CC(C)C[C@H](NC(=O)[C@H](CC(C)C)NC(=O)[C@@H](N)Cc1ccccc1)C(=O)O` [compound 5, H-Phe-Leu–Leu-OH] (H-Phe-Leu-Leu-OH), the IC50 against chymotrypsin was 184 ± 14 µM. Further, on 20Si (immunoproteasome), the “Selectivity of binding 20Si vs 20Sc” value is “selective inhibition of 20Si” and the “Ability to bind 20Si” value was “+ (+, bound)”. The “Ability to bind 20Sc” value in assay [1] is on record as “– (−, lack of bonding)”. Also, on 20Si, the “Found 20Si” value was found to be 2.97 ± 0.40 µg/mL and the Recovery came out at 106%.

For `CC(C)C[C@H](NC(=O)[C@H](Cc1ccccc1)NC(=O)[C@@H](N)CC(C)C)C(=O)O` [compound 10, H-Leu-Phe-Leu-OH] (H-Leu-Phe-Leu-OH), half-maximal inhibition with trypsin (IC50) was put at 12000 ± 960 µM. Besides, the IC50 on chymotrypsin is 1830 ± 150 µM. On 20Si (immunoproteasome), the “Selectivity of binding 20Si vs 20Sc” value is reported as “selective inhibition of 20Si” and the “Ability to bind 20Si” value is “+ (+, bound)”. The “Ability to bind 20Sc” value in assay [1] is recorded as “– (−, lack of bonding)”. Also, at 20Si, the “Found 20Si” value was determined as 2.89 ± 0.60 µg/mL and the Recovery is recorded as 103%.

Turning to `CC(C)C[C@H](NC(=O)[C@H](Cc1ccccc1)NC(=O)[C@@H](N)Cc1ccccc1)C(=O)O` [compound 6, H-Phe-Phe-Leu-OH] (H-Phe-Phe-Leu-OH), on chymotrypsin, the IC50 is 174 ± 13 µM. Also, at 20Si (immunoproteasome), the “Selectivity of binding 20Si vs 20Sc” value is recorded as “selectivity to 20Sc” and the “Ability to bind 20Si” value is given as “– (−, lack of bonding)”. Further, the “Ability to bind 20Sc” value in assay [1] was “+ (+, bound)”.

The compound `CC(C)C[C@H](NC(=O)[C@@H](N)CC(C)C)C(=O)N[C@@H](Cc1ccccc1)C(=O)O` [compound 8, H-Leu-Leu-Phe-OH] (H-Leu-Leu-Phe-OH) yielded an IC50 in the assay with trypsin of 79 ± 6 µM. The compound also displayed an IC50 on chymotrypsin of 152 ± 12 µM. In addition, on 20Si (immunoproteasome), the “Selectivity of binding 20Si vs 20Sc” value is listed as “selective inhibition of 20Si” and the “Ability to bind 20Si” value is “+ (+, bound)”. Further, in assay [1], the “Ability to bind 20Sc” value is recorded as “– (−, lack of bonding)”. On 20Si, the “Found 20Si” value is 2.88 ± 0.44 µg/mL and the Recovery came out at 103%.

Regarding `N[C@@H](Cc1ccccc1)C(=O)N[C@@H](CCc1ccccc1)C(=O)N[C@@H](Cc1ccccc1)C(=O)O` [compound 7, H-Phe-hPhe-Phe-OH] (H-Phe-[hPhe]-Phe-OH), the figures for the IC50 in the assay with trypsin and against chymotrypsin were 44 ± 3 µM and 185 ± 14 µM, respectively. The “Selectivity of binding 20Si vs 20Sc” value on 20Si (immunoproteasome) was “able to bind both 20Si and 20Sc”. The “Ability to bind 20Si” value at 20Si (immunoproteasome) is “+ (+, bound)”. In addition, the “Ability to bind 20Sc” value in assay [1] was “+ (+, bound)”.

`CC(C)C[C@H](NC(=O)[C@@H](N)Cc1ccccc1)C(=O)N[C@@H](Cc1ccccc1)C(=O)O` [compound 1, H-Phe-Leu-Phe-OH] (H-Phe-Leu-Phe-OH) registered an IC50 against chymotrypsin of 178 ± 14 µM. Further, on 20Si (immunoproteasome), the “Selectivity of binding 20Si vs 20Sc” value was “able to bind both 20Si and 20Sc”; the “Ability to bind 20Si” value is “+ (+, bound)”. Besides, in assay [1], the “Ability to bind 20Sc” value is listed as “+ (+, bound)”.

In the assay on trypsin, `CCCC[C@H](NC(=O)[C@H](CC(C)C)NC(=O)[C@@H](N)Cc1ccccc1)C(=O)O` [compound 11, H-Phe-Leu-nLeu-OH] (H-Phe-Leu-[Nle]-OH) showed a 50% inhibitory concentration (IC50) of 18000 ± 1440 µM. At chymotrypsin, the IC50 turned out to be 1920 ± 150 µM. Further, on 20Si (immunoproteasome), the “Selectivity of binding 20Si vs 20Sc” value was “selective inhibition of 20Si” and the “Ability to bind 20Si” value is listed as “+ (+, bound)”. Moreover, the “Ability to bind 20Sc” value in assay [1] is on record as “– (−, lack of bonding)”. At 20Si, the “Found 20Si” value came out at 2.99 ± 0.47 µg/mL and the Recovery is 107%.
